How the values were obtained:
HeLa cells = assay: BrdU pulse / PI bivariate FACS analysis of replisome stability; assay type: cell-based; conditions: hydroxyurea 24 hr
Procedure: In order to evaluate the effect of Claspin depletion on replisome stability, the ability of Claspin-depleted cells to maintain functional replisomes in the continuous presence of imposed replicational stress was investigated (FIG. 1). To do this, cells were treated with buffer control or 2 mM hydroxyurea (HU) for 24 h, then exposed to a 30 min pulse of BrdU, prior to fixation and PI staining, and subsequent bivariate FACS analysis.
(§1) HeLa or HCC1937 cells were seeded at 5×10^4 or 2×10^5 cells into 6-well tissue culture plates respectively, in 1 mL of their media and left for 24 hours. Cells were then washed twice with warm PBS and transfected twice over 48 hours with SMARTpool™ siRNA against Claspin (Dharmacon, Chicago, Ill., USA) at a concentration of 100 nM for 5 hours in serum free media (OptiMEM (Invitrogen)) using Oligofectamine (Invitrogen) as per manufacturer's instructions. After each transfection, cells were then washed once with warm PBS, and 1.5 mL of media added and then left for 19 hours. After transfection cells were trypsinized and seeded into 60 mm dishes and left in fresh media for 24 hours before being treated with either 0 or 2 mM HU for 24 hours. Alternatively cells were untreated, left in a flow cabinet for an equivalent time. […]

HCC1937 cells = assay: as above; assay type: cell-based; conditions: mock siRNA-treated HCC1937 cells
Procedure: BRCA1 has been implicated previously in the cellular response to IR, and BRCA1-deficient cells fail to activate Chk1 following IR exposure. The inventors investigated the effect of siRNA-mediated knockdown of Claspin in HCC1937 cells which lack functional BRCA1 and which have been previously shown to have a defective G2 checkpoint, failing to arrest on exposure to IR. […] The loss of BrdU incorporation was particularly observed in mid- to late-S phase cells.
as §1

MDC1 = target: T1, MDC1 (UniProt Q14676 1-2089); assay: co-immunoprecipitation with anti-Chk1 antibody from HeLa cell extracts, immunoblot
T1 construct: Endogenous protein in HeLa whole cell extract
Procedure: (§2) Cells were then lysed through 3 freeze/thaw cycles, and clarified by centrifugation at 14,000 rpm for 5 mins at 4° C. The supernatant was then removed and assayed for concentration by Bradford assay (Pierce) and aliquots stored at −70° C. until use. For immunoblotting 25-60 μg of whole cell extract was used per well in Laemmli SDS loading buffer. Extracts were separated on 6-12% SDS-PAGE gels before being transferred to nitrocellulose membrane (Protran) for probing. Membranes were blocked in either 5% Marvel milk or 5% BSA according to antibody manufacturer's guidelines. Membranes were then washed before being probed with primary antibodies diluted in blocking buffer. […] Secondary antibodies were anti-rabbit IgG-HRP, anti-sheep IgG-HRP and anti-mouse IgG-HRP (Jackson Immunologicals) and bands were detected using enhanced chemiluminescence (ECL) (Amersham Pharmacia) and autoradiographic film (FUJI film).
(§3) Immunoprecipitation (IP) as carried out with 500 μg to 1 mg of whole cell extract per IP. […] Complexes isolated were then analysed by immunoblotting.

TopBP1 = target: T2, TopBP1 (UniProt Q92547 1-1522); assay: as above
T2 construct: Endogenous protein in HeLa whole cell extract
Procedure: as §2, §3

T1 sequence (Q14676 whole entry): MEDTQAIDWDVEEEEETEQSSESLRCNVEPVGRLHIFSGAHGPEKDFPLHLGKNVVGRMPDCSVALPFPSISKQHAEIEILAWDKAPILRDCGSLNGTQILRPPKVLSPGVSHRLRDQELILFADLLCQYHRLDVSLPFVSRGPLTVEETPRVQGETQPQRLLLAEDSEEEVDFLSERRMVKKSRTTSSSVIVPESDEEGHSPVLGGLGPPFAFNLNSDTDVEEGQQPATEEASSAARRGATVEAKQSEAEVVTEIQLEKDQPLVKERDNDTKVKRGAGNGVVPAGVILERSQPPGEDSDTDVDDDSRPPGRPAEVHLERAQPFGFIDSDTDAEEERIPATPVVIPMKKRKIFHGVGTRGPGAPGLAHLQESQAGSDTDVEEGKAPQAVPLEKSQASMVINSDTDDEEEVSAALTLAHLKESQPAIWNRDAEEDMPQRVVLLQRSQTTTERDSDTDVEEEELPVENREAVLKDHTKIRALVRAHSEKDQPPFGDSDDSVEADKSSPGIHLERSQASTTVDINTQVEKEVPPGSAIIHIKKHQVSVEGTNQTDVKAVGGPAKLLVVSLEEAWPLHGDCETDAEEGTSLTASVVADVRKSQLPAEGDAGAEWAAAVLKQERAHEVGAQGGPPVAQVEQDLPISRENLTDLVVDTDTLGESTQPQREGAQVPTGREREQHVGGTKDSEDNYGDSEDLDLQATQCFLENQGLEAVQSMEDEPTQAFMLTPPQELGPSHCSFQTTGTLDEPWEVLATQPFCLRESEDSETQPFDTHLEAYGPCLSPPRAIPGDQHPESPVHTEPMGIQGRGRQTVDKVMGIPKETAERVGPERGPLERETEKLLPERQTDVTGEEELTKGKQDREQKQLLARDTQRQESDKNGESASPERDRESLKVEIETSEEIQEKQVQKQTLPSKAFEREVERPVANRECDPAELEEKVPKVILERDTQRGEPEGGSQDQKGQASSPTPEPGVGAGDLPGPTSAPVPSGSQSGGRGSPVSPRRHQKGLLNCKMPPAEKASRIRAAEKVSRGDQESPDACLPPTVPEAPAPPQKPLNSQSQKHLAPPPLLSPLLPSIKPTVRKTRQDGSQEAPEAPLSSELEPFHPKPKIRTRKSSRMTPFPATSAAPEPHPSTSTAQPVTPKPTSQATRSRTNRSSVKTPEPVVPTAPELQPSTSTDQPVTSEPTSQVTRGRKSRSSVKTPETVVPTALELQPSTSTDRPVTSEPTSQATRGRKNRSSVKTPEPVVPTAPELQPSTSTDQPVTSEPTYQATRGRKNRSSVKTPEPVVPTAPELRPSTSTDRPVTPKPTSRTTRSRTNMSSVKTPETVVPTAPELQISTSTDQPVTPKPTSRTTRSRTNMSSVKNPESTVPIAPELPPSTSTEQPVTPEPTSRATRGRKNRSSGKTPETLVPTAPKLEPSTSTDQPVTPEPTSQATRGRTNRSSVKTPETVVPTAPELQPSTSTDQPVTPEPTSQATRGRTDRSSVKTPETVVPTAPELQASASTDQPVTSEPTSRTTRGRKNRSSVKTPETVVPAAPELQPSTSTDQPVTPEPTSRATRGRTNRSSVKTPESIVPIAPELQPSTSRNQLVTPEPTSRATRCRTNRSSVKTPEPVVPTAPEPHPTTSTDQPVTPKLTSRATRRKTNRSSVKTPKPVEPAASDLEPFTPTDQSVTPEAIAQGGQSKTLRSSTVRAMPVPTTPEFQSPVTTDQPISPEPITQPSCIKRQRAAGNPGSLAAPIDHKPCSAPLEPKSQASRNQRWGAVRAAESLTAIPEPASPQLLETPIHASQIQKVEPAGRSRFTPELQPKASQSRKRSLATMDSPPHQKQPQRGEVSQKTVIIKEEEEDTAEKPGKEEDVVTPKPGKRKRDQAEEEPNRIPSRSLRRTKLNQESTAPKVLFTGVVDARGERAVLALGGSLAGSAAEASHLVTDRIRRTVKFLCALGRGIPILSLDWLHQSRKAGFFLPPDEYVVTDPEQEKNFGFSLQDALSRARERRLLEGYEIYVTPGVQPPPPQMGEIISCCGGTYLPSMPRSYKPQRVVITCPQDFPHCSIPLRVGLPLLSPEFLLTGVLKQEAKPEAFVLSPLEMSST
T2 sequence (Q92547 whole entry): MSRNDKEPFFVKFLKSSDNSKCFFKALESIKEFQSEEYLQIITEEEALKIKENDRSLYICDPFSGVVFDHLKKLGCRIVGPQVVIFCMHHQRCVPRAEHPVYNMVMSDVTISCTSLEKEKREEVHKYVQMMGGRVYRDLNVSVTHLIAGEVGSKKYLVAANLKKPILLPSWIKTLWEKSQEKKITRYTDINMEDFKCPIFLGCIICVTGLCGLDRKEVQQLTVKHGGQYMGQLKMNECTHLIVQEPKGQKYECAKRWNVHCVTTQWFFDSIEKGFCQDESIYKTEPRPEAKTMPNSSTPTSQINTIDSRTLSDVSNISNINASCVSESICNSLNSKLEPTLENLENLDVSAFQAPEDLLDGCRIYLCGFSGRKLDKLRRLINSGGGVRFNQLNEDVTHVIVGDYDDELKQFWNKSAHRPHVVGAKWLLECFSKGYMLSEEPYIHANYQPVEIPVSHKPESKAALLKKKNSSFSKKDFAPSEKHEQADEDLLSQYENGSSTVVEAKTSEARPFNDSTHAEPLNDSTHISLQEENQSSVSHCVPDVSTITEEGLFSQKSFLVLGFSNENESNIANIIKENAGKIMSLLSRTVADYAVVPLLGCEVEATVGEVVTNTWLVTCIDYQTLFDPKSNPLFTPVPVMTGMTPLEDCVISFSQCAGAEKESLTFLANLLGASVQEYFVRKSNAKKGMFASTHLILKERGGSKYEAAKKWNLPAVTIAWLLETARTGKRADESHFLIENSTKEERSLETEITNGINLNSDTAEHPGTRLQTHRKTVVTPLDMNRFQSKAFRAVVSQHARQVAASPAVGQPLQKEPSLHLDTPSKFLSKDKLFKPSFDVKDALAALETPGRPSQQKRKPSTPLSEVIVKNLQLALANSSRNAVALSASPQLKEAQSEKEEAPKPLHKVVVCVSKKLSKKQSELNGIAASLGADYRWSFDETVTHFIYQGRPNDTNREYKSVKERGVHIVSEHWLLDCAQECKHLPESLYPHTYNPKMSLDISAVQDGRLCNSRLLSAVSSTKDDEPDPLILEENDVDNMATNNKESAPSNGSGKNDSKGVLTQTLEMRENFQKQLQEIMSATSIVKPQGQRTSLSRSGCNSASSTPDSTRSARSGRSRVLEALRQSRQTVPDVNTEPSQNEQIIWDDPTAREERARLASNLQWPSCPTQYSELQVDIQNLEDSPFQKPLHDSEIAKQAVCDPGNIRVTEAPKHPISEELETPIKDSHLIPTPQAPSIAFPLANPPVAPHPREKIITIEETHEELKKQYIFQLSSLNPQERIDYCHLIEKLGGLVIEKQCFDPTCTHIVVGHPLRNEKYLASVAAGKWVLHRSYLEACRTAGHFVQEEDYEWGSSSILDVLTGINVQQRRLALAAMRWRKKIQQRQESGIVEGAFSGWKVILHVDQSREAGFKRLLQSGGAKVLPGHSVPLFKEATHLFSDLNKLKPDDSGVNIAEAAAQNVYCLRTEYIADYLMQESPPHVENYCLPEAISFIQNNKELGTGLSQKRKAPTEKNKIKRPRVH

Molecule	accumulation of cells in early S phase (HeLa cells)	accumulation of cells in early S-phase (HCC1937 cells)	binding result (MDC1)	binding result (TopBP1)
NC(=O)NO [hydroxyurea]	significant accumulation of cells in early S phase	accumulation of cells in early S-phase		
Chk1 (serine/threonine protein kinase Chk1) (enzyme, UniProt O14757 1-476, looked up, Endogenous protein in HeLa whole cell extract; HeLa is a human cell line; also called Chk1 protein kinase) MAVPFVEDWDLVQTLGEGAYGEVQLAVNRVTEEAVAVKIVDMKRAVDCPENIKKEICINKMLNHENVVKFYGHRREGNIQYLFLEYCSGGELFDRIEPDIGMPEPDAQRFFHQLMAGVVYLHGIGITHRDIKPENLLLDERDNLKISDFGLATVFRYNNRERLLNKMCGTLPYVAPELLKRREFHAEPVDVWSCGIVLTAMLAGELPWDQPSDSCQEYSDWKEKKTYLNPWKKIDSAPLALLHKILVENPSARITIPDIKKDRWYNKPLKKGAKRPRVTSGGVSESPSGFSKHIQSNLDFSPVNSASSEENVKYSSSQPEPRTGLSLWDTSPSYIDKLVQGISFSQPTCPDHMLLNSQLLGTPGSSQNPWQRLVKRMTRFFTKLDADKSYQCLKETCEKLGYQWKKSCMNQVTISTTDRRNNKLIFKVNLLEMDDKILVDFRLSKGDGLEFKRHFLKIKGKLIDIVSSQKIWLPAT			no binding	no binding
